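Dose response: 5 concentrations. Exposure: 48 h. Format: 96-well plates. Endpoint: linear interpolation; highest concentration if not reached. TGI is the concentration that stops growth completely.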
Legend:
Assay in all cases: DTP human tumour cell line panel, 48 h
[1] = test system: EKVX NSCLC
[2] = test system: CCRF-CEM leukemia
[3] = test system: SK-MEL-28 melanoma
[4] = test system: RXF 393 renal
[5] = test system: A498 renal
[6] = test system: HOP-92 NSCLC
[7] = test system: SW-620 colon
[8] = test system: COLO 205 colon
[9] = test system: OVCAR-4 ovarian
[10] = test system: UO-31 renal
[11] = test system: KM12 colon
[12] = test system: HOP-18 NSCLC
[13] = test system: SN12C renal
[14] = test system: KM20L2 colon
[15] = test system: XF 498 CNS
[16] = test system: LOX IMVI melanoma
[17] = test system: A549 NSCLC
[18] = test system: CAKI-1 renal
[19] = test system: DMS 114 small cell lung
[20] = test system: HCT-15 colon
[21] = test system: OVCAR-5 ovarian
[22] = test system: SNB-75 CNS
[23] = test system: SK-MEL-2 melanoma
[24] = test system: HL-60(TB) leukemia
[25] = test system: MALME-3M melanoma
[26] = test system: SF-295 CNS
[27] = test system: TK-10 renal
[28] = test system: LXFL 529 NSCLC
[29] = test system: OVCAR-3 ovarian
[30] = test system: M19-MEL melanoma
[31] = test system: NCI-H460 lung
[32] = test system: U251 CNS
[33] = test system: SK-MEL-5 melanoma
[34] = test system: SF-539 CNS
[35] = test system: OVCAR-8 ovarian
[36] = test system: 786-0 renal
[37] = test system: UACC-62 melanoma
[38] = test system: M14 melanoma
[39] = test system: NCI-H522 lung
[40] = test system: SF-268 CNS
[41] = test system: RPMI-8226 leukemia
[42] = test system: ACHN renal
[43] = test system: K-562 leukemia
[44] = test system: SNB-19 CNS
[45] = test system: UACC-257 melanoma
[46] = test system: SK-OV-3 ovarian
[47] = test system: DMS 273 small cell lung
[48] = test system: HOP-62 NSCLC
[49] = test system: HT29 colon
[50] = test system: MOLT-4 leukemia
[51] = test system: NCI-H23 lung
[52] = test system: IGROV1 ovarian
[53] = test system: HCT-116 colon
[54] = test system: NCI-H226 lung
[55] = test system: SNB-78 CNS
[56] = test system: SR leukemia
[57] = test system: HCC-2998 colon
[58] = test system: DLD-1 colon
[59] = test system: PC-3 prostate
[60] = test system: MCF7 breast
[61] = test system: MDA-N
[62] = test system: T-47D breast
[63] = test system: BT-549 breast
[64] = test system: MDA-MB-231 breast
[65] = test system: DU-145 prostate
[66] = test system: NCI/ADR-RES ovarian
[67] = test system: HS 578T breast
[68] = test system: RXF-631 renal

O=[N+]([O-])c1ccc(N=P(c2ccccc2)(c2ccccc2)c2ccccc2)n2nnnc12
TGI [1]: > 100 µM | TGI [2]: > 100 µM | TGI [3]: > 100 µM | TGI [4]: > 100 µM | TGI [5]: > 100 µM | TGI [6]: 67.5 µM | TGI [7]: > 100 µM | TGI [8]: > 100 µM | TGI [9]: 90.3 µM | TGI [10]: > 100 µM | TGI [11]: > 100 µM | TGI [12]: > 100 µM | TGI [13]: > 100 µM | TGI [14]: > 100 µM | TGI [15]: > 100 µM | TGI [16]: > 100 µM | TGI [17]: > 100 µM | TGI [18]: > 100 µM | TGI [19]: > 100 µM | TGI [20]: > 100 µM | TGI [21]: > 100 µM | TGI [22]: 42.6 µM | TGI [23]: > 100 µM | TGI [24]: > 100 µM | TGI [25]: > 100 µM | TGI [26]: 90.2 µM | TGI [27]: > 100 µM | TGI [28]: > 100 µM | TGI [29]: > 100 µM | TGI [30]: > 100 µM | TGI [31]: > 100 µM | TGI [32]: > 100 µM | TGI [33]: > 100 µM | TGI [34]: 50.9 µM | TGI [35]: > 100 µM | TGI [36]: > 100 µM | TGI [37]: > 100 µM | TGI [38]: > 100 µM | TGI [39]: > 100 µM | TGI [40]: > 100 µM | TGI [41]: > 100 µM | TGI [42]: > 100 µM | TGI [43]: > 100 µM | TGI [44]: > 100 µM | TGI [45]: > 100 µM | TGI [46]: 95.8 µM | TGI [47]: > 100 µM | TGI [48]: 90.2 µM | TGI [49]: > 100 µM | TGI [50]: > 100 µM | TGI [51]: > 100 µM | TGI [52]: > 100 µM

CC1=Nc2ccccc2S/C1=C1/C=NC(=NC#N)N=C1C(=O)Nc1cccc(Cl)c1
TGI [1]: > 100 µM | TGI [2]: > 100 µM | TGI [3]: > 100 µM | TGI [4]: > 100 µM | TGI [5]: > 100 µM | TGI [7]: > 100 µM | TGI [8]: > 100 µM | TGI [9]: > 100 µM | TGI [10]: > 100 µM | TGI [11]: > 100 µM | TGI [12]: > 100 µM | TGI [53]: > 100 µM | TGI [13]: > 100 µM | TGI [14]: > 100 µM | TGI [16]: > 100 µM | TGI [17]: > 100 µM | TGI [18]: > 100 µM | TGI [19]: > 100 µM | TGI [20]: > 100 µM | TGI [21]: > 100 µM | TGI [22]: > 100 µM | TGI [23]: > 100 µM | TGI [25]: > 100 µM | TGI [26]: > 100 µM | TGI [27]: > 100 µM | TGI [28]: > 100 µM | TGI [54]: > 100 µM | TGI [29]: > 100 µM | TGI [55]: > 100 µM | TGI [56]: > 100 µM | TGI [30]: > 100 µM | TGI [31]: > 100 µM | TGI [32]: > 100 µM | TGI [33]: > 100 µM | TGI [34]: > 100 µM | TGI [35]: > 100 µM | TGI [36]: > 100 µM | TGI [37]: > 100 µM | TGI [38]: > 100 µM | TGI [39]: > 100 µM | TGI [40]: > 100 µM | TGI [41]: > 100 µM | TGI [42]: > 100 µM | TGI [43]: > 100 µM | TGI [44]: > 100 µM | TGI [57]: > 100 µM | TGI [45]: > 100 µM | TGI [46]: > 100 µM | TGI [47]: > 100 µM | TGI [48]: > 100 µM | TGI [49]: > 100 µM | TGI [50]: > 100 µM | TGI [58]: > 100 µM | TGI [51]: > 100 µM | TGI [52]: > 100 µM

Nc1nc(N)c(CCCCc2ccc([N+](=O)[O-])cc2)c(N)n1
TGI [1]: > 100 µM | TGI [2]: > 100 µM | TGI [4]: > 100 µM | TGI [5]: > 100 µM | TGI [6]: > 100 µM | TGI [7]: > 100 µM | TGI [8]: > 100 µM | TGI [9]: > 100 µM | TGI [10]: > 100 µM | TGI [11]: > 100 µM | TGI [59]: > 100 µM | TGI [12]: > 100 µM | TGI [53]: > 100 µM | TGI [13]: > 100 µM | TGI [14]: > 100 µM | TGI [60]: > 100 µM | TGI [15]: > 100 µM | TGI [16]: > 100 µM | TGI [17]: > 100 µM | TGI [18]: > 100 µM | TGI [19]: > 100 µM | TGI [20]: > 100 µM | TGI [21]: > 100 µM | TGI [22]: > 100 µM | TGI [23]: > 100 µM | TGI [24]: > 100 µM | TGI [25]: > 100 µM | TGI [26]: > 100 µM | TGI [27]: > 100 µM | TGI [28]: > 100 µM | TGI [54]: > 100 µM | TGI [29]: > 100 µM | TGI [55]: > 100 µM | TGI [56]: > 100 µM | TGI [61]: > 100 µM | TGI [30]: > 100 µM | TGI [62]: > 100 µM | TGI [31]: > 100 µM | TGI [32]: > 100 µM | TGI [63]: > 100 µM | TGI [64]: > 100 µM | TGI [33]: > 100 µM | TGI [65]: > 100 µM | TGI [34]: > 100 µM | TGI [35]: > 100 µM | TGI [66]: > 100 µM | TGI [36]: > 100 µM | TGI [37]: > 100 µM | TGI [38]: > 100 µM | TGI [39]: > 100 µM | TGI [40]: > 100 µM | TGI [41]: > 100 µM | TGI [42]: > 100 µM | TGI [43]: > 100 µM | TGI [44]: > 100 µM | TGI [57]: > 100 µM | TGI [45]: > 100 µM | TGI [46]: > 100 µM | TGI [47]: > 100 µM | TGI [48]: > 100 µM | TGI [49]: > 100 µM | TGI [50]: > 100 µM | TGI [58]: > 100 µM | TGI [51]: > 100 µM | TGI [52]: > 100 µM | TGI [67]: > 100 µM

CC/C(CC(=O)CCC(=O)Nc1ccc(C)c(C)c1)=N\NC(=O)c1cc2ccccc2cc1O
TGI [1]: 88.3 µM | TGI [2]: > 100 µM | TGI [3]: 46.9 µM | TGI [4]: 66.7 µM | TGI [6]: 91.3 µM | TGI [7]: > 100 µM | TGI [8]: > 100 µM | TGI [9]: > 100 µM | TGI [10]: > 100 µM | TGI [11]: > 100 µM | TGI [12]: 88.1 µM | TGI [53]: > 100 µM | TGI [13]: > 100 µM | TGI [16]: 81.1 µM | TGI [18]: > 100 µM | TGI [19]: > 100 µM | TGI [20]: > 100 µM | TGI [21]: > 100 µM | TGI [23]: > 100 µM | TGI [24]: 8.68 µM | TGI [25]: 92.6 µM | TGI [26]: > 100 µM | TGI [28]: > 100 µM | TGI [54]: > 100 µM | TGI [29]: > 100 µM | TGI [55]: > 100 µM | TGI [56]: 69 µM | TGI [30]: > 100 µM | TGI [31]: > 100 µM | TGI [32]: > 100 µM | TGI [35]: > 100 µM | TGI [37]: 43.9 µM | TGI [68]: > 100 µM | TGI [38]: 42.5 µM | TGI [40]: > 100 µM | TGI [42]: > 100 µM | TGI [43]: > 100 µM | TGI [44]: > 100 µM | TGI [57]: 43.2 µM | TGI [45]: > 100 µM | TGI [46]: 87.3 µM | TGI [48]: > 100 µM | TGI [49]: > 100 µM | TGI [50]: > 100 µM | TGI [58]: > 100 µM | TGI [51]: 89.4 µM | TGI [52]: 57.5 µM
